Experimental data reported in US20230279495A1, “MOLECULAR SIGNATURES OF RADIATION SENSITIVITY IN TUMORS, AND METHODS OF USE THEREOF” (MEMORIAL SLOAN KETTERING CANCER CENTER, priority 2019, published 2023).

Legend:
[1] = system: DSB repair pathways (NHEJ, MMEJ, HR) at the AAVS1 locus in U2OS cells; experiment: Cas9 assay (DSBR-Seq): NHEJ, MMEJ and HR quantified by sequencing repair events at a site-directed DSB; assay type: cell-based
Method: FIG. 4. A-G. E7 expression shifts DNA double strand break repair pathway choice towards MMEJ. (FIG. 4 A) Schematic of DSBR-Seq Assay. The sequencing reads are classified into NHEJ (<5 bp deletion) in (FIG. 4 B), MMEJ (>5 bp deletion with at least 2 bp MH) in (FIG. 4 C) and HR (substitutions from HR donor) in (FIG. 4 D). The DNApk inhibitor […] was used at 1 μM (micromolar) concentration. (FIG. 4 E) cNHEJ measured as a fraction of mutant reads with deletion sizes less than 5 bp. (FIG. 4 F) E7 expression favors mutant reads with deletion sizes larger than 5 bp representing DSBs repaired by MMEJ. (FIG. 4 G) E7 expression results in lower deletion frequency of small deletions near the double strand break. Results represent the mean of 3 independent experiments+/−the standard error of the mean. * represents a p-vale of <0.05.
To measure DSB repair pathway tradeoffs within an endogenous genomic locus, we used the Cas9 endonuclease to create a site-directed DSB at the AAVS1 locus, chosen because of its characterization as a “safe” genomic locus for integration. Cas9 creates a blunt-ended DSB and repair events at the breaksite can be cataloged in a pool of cells using PCR amplification of a region surrounding the breaksite and massively parallel sequencing to quantify repair outcomes. […] NHEJ is measured with sequencing events with small (1-5) base pair deletions whereas MMEJ is quantified using sequencing events with large deletions and microhomology at the breaksite. All three pathways are thereby quantifiable in a single set of sequencing data in a single pool of cells (FIG. 4 A). […]
To quantify NHEJ, MMEJ and HR at an endogenous breaksite, a Cas9 and gRNA expression plasmid and a donor template oligonucleotide was transfected into U2OS cells with and without E7 expressed. A PCR product surrounding the breaksite was sequenced using Illumina-based NGS technology and the pattern of deletions at the breaksite was analyzed and quantified according to methods described within the Example 2 (SI appendix). […]

[2] = molecular target: Rb (retinoblastoma protein, RB1) (human) (UniProt P06400); experiment: cell-based or functional assay
Chain of UniProt P06400 (P06400 2-928 limits assumed): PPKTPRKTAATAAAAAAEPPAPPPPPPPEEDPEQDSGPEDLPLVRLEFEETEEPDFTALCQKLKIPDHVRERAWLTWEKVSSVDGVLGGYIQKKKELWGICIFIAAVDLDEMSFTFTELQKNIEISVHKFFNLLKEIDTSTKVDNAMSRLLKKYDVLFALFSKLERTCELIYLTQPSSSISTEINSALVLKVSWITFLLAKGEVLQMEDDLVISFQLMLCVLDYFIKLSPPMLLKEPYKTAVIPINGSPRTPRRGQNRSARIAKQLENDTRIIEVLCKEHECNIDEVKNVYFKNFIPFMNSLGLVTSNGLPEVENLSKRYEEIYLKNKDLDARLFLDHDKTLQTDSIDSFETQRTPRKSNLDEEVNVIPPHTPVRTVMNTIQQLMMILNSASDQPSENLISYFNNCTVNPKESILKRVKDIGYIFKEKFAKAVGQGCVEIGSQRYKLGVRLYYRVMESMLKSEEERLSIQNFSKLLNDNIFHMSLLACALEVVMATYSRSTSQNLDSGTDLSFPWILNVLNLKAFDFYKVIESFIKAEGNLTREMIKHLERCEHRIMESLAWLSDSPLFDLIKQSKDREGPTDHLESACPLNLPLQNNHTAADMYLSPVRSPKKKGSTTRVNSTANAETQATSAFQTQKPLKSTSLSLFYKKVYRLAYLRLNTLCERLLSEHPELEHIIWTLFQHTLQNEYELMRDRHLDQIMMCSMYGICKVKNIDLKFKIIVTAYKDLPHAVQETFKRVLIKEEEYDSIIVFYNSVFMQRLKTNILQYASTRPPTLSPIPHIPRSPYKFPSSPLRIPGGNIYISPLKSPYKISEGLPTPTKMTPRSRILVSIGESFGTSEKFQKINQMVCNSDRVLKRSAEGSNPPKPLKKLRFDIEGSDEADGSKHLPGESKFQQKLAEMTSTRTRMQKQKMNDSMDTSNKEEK

O=c1cc(N2CCOCC2)oc2c(-c3cccc4c3sc3ccccc34)cccc12 [Nu7441]
small deletions (1-5 base pairs), reflective of NHEJ ([1]; inhibitor at 1 μM (FIG. 4 B)): decrease
larger deletions (>5 bp) with microhomology (≥2 bp) (MMEJ) ([1]; inhibitor at 1 μM (FIG. 4 C)): increase
HR (substitutions from HR donor) ([1]; inhibitor at 1 μM (FIG. 4 D)): increase

HPV16 E7 oncoprotein (from UniProt P03129 1-98)
MMEJ activity (percentage of GFP positive cells, U2OS EJ2-GFP reporter, against empty vector) [2]: 42%
decrease in NHEJ activity (percentage of GFP positive cells, U2OS EJ5-GFP reporter, against empty vector) [2]: 31%
